Assay results as given in ChEMBL document CHEMBL1201862, “PubChem BioAssay data set” (2004).
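All cell lines were grown in 96-well plates and treated with compound for 48 hours. Abbreviation: GI50, concentration required for 50% inhibition of growth.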 Activity calls are given as the source filed them. Rule as the data show it: active = GI50 up to about 1.1 µM and inactive = higher.

Experiments:
Assay in all cases: NCI-60 cell line screen, 48 h
[1] = tested on: HCT-15
[2] = tested on: DU-145
[3] = tested on: HT-29
[4] = tested on: COLO 205
[5] = tested on: SR
[6] = tested on: SK-MEL-2
[7] = tested on: SK-MEL-5
[8] = tested on: OVCAR-4
[9] = tested on: OVCAR-5
[10] = tested on: SF-268
[11] = tested on: SF-539
[12] = tested on: HL-60
[13] = tested on: SNB-75
[14] = tested on: A549
[15] = tested on: EKVX
[16] = tested on: T47D
[17] = tested on: SW-620
[18] = tested on: RPMI-8226
[19] = tested on: K562
[20] = tested on: A498

Compound	GI50 [1] [µM]	GI50 [2]	GI50 [3]	GI50 [4]	GI50 [5]	GI50 [6]	GI50 [7]	GI50 [8]	GI50 [9]	GI50 [10]	GI50 [11]	GI50 [12]	GI50 [13]	GI50 [14]	GI50 [15]	GI50 [16]	GI50 [17]	GI50 [18]	GI50 [19]	GI50 [20]
O=C1/C(=C/c2ccc(OC(=O)c3ccccc3)cc2)CCC/C1=C\c1ccc(OC(=O)c2ccccc2)cc1	> 100	> 100 µM (inactive)	> 100 µM (inactive)	> 100 µM (inactive)	> 100 µM (inactive)	> 100 µM (inactive)	> 100 µM (inactive)	> 100 µM (inactive)	> 100 µM (inactive)	> 100 µM (inactive)	> 100 µM (inactive)	> 100 µM (inactive)	93.3 µM (inactive)	> 100 µM (inactive)	> 100 µM (inactive)	> 100 µM (inactive)	> 100 µM (inactive)	> 100 µM (inactive)		
Cc1cc2nc3c(C)c4ccccc4c(C)n3c2cc1C	1.97	3.3 µM (inactive)	2.2 µM (inactive)	2.15 µM (inactive)	2.96 µM (inactive)	3.66 µM (inactive)	2.26 µM (inactive)	4.35 µM (inactive)	2.48 µM (inactive)	3.85 µM (inactive)	1.56 µM (inactive)	3.22 µM (inactive)	4.97 µM (inactive)	3.9 µM (inactive)	5 µM (inactive)	> 10 µM (inactive)	2.49 µM (inactive)	3.21 µM (inactive)	5.21 µM (inactive)	
C[C@@]1(OC(=O)c2cc([N+](=O)[O-])cc([N+](=O)[O-])c2)C[C@@H]2CCCC[C@@H]21	> 100	> 100 µM (inactive)	> 100 µM (inactive)	> 100 µM (inactive)	> 100 µM (inactive)	> 100 µM (inactive)	83.8 µM (inactive)	> 100 µM (inactive)	> 100 µM (inactive)	> 100 µM (inactive)	> 100 µM (inactive)	> 100 µM (inactive)	48.2 µM (inactive)	> 100 µM (inactive)	> 100 µM (inactive)	> 100 µM (inactive)	> 100 µM (inactive)	31.6 µM (inactive)	> 100 µM (inactive)	
CC1(C)CC(=O)C2=C(C1)NC1=C(C(=O)CC(C)(C)C1)C2c1ccc([N+](=O)[O-])cc1	> 100	> 100 µM (inactive)	> 100 µM (inactive)	> 100 µM (inactive)		> 100 µM (inactive)	> 100 µM (inactive)	> 100 µM (inactive)	> 100 µM (inactive)	> 100 µM (inactive)	> 100 µM (inactive)	> 100 µM (inactive)	16.7 µM (inactive)	> 100 µM (inactive)	> 100 µM (inactive)	> 100 µM (inactive)	> 100 µM (inactive)	> 100 µM (inactive)	> 100 µM (inactive)	> 100 µM (inactive)
Cc1sc(N/N=C2\C(=O)Nc3ccccc32)nc1-c1ccccc1	9.38	11.6 µM (inactive)	20.3 µM (inactive)	13.4 µM (inactive)		18.7 µM (inactive)	12.6 µM (inactive)	13.9 µM (inactive)	20.9 µM (inactive)	13.6 µM (inactive)	18.8 µM (inactive)	4.23 µM (inactive)	19.7 µM (inactive)	14.8 µM (inactive)	11.1 µM (inactive)	13.6 µM (inactive)	23.6 µM (inactive)			15.1 µM (inactive)
COc1ccc(C(OCC2OC(n3ccc(NC(=O)c4ccccc4)nc3=O)CC2OP2(=S)SCCS2)(c2ccccc2)c2ccc(OC)cc2)cc1 (stereo not drawn)	33.5	32.9 µM (inactive)	24.7 µM (inactive)	> 10 µM (inactive)	48.1 µM (inactive)	43.6 µM (inactive)	22.4 µM (inactive)	30.1 µM (inactive)	36.8 µM (inactive)	21.2 µM (inactive)			24.5 µM (inactive)	56.2 µM (inactive)	34.5 µM (inactive)	36.3 µM (inactive)	18.4 µM (inactive)	> 100 µM (inactive)	> 100 µM (inactive)	
S=C1CC(c2ccccc2)Sc2cc(Cl)ccc2N1 (stereo not drawn)	1.32	> 100 µM (inactive)	4.4 µM (inactive)	5.02 µM (inactive)	3.44 µM (inactive)		5.64 µM (inactive)	13.2 µM (inactive)	> 100 µM (inactive)	6.84 µM (inactive)		0.726 µM (active)	5.24 µM (inactive)	5.68 µM (inactive)	20.7 µM (inactive)	21.6 µM (inactive)		43.5 µM (inactive)	0.64 µM (active)	
COc1ccc(/C(=N/OCCCC(=O)O)c2cccs2)cc1	> 100	> 100 µM (inactive)	> 100 µM (inactive)	> 100 µM (inactive)		> 100 µM (inactive)	> 100 µM (inactive)	> 100 µM (inactive)	> 100 µM (inactive)	> 100 µM (inactive)	> 100 µM (inactive)	> 100 µM (inactive)	> 100 µM (inactive)	> 100 µM (inactive)	> 100 µM (inactive)	> 100 µM (inactive)	> 100 µM (inactive)	> 100 µM (inactive)	> 100 µM (inactive)	> 100 µM (inactive)
C/C=C1/CN2CCC34C(=C(C(=O)OC)C1CC23)Nc1ccc(O)cc14 (stereo not drawn)	> 100	> 100 µM (inactive)	> 100 µM (inactive)	> 100 µM (inactive)		> 100 µM (inactive)	> 100 µM (inactive)	> 100 µM (inactive)	> 100 µM (inactive)	61.8 µM (inactive)	> 100 µM (inactive)	> 100 µM (inactive)	> 100 µM (inactive)	> 100 µM (inactive)	> 100 µM (inactive)	> 100 µM (inactive)	> 100 µM (inactive)	> 100 µM (inactive)		> 100 µM (inactive)
COC(=O)C(C)(Cc1ccc2c(c1)nnn2C(C)=O)NC(C)=O (stereo not drawn)	> 100	> 100 µM (inactive)	> 100 µM (inactive)	> 100 µM (inactive)	> 100 µM (inactive)	> 100 µM (inactive)	> 100 µM (inactive)	> 100 µM (inactive)	> 100 µM (inactive)	> 100 µM (inactive)		> 100 µM (inactive)	> 100 µM (inactive)	> 100 µM (inactive)	> 100 µM (inactive)	> 100 µM (inactive)	> 100 µM (inactive)	> 100 µM (inactive)	> 100 µM (inactive)	
CCCCCCNC(=O)CCC(NC(=O)c1ccc(N(C)Cc2cnc3nc(N)nc(N)c3n2)cc1)C(=O)NCCCCCC (stereo not drawn)	> 100	89.3 µM (inactive)	88.7 µM (inactive)	> 100 µM (inactive)	> 100 µM (inactive)	> 100 µM (inactive)	7.41 µM (inactive)	> 100 µM (inactive)	> 100 µM (inactive)	> 100 µM (inactive)			> 100 µM (inactive)	> 100 µM (inactive)	37.4 µM (inactive)	> 100 µM (inactive)	> 100 µM (inactive)	37.8 µM (inactive)	2.52 µM (inactive)	> 100 µM (inactive)
